Source: US20260201008A1, “SECRETIN-DERIVED GLP1R SELECTIVE AGONISTS” (GUBRA A/S, priority 2023, published 2026)
pEC50: −log10 of the molar value. Like-named read-outs stand apart in the source and are kept apart here. Numbered stars: 1 amine (or outer) side, 2 acyl side, 3 side chain; on linkers, the order of the positions; unused ones are H or OH. Square brackets hold non-standard residues; d marks the D form. Side chains are listed from the residue outwards. Peptide text beside a SMILES is read from it. * marks the point of attachment. C20 diacid = O=C(O)CCCCCCCCCCCCCCCCCCC(=O)*; γGlu = O=C(O)[C@H](CCC(=O)[*:2])N[*:1]; AEEA = NCCOCCOCC(=O)O; Aib = CC(C)(N)C(=O)O

How the values were obtained:
GLP1R = GLP1R (Homo sapiens, UniProt P43220); test: hGLP1R potency, cAMP accumulation in CHO-K1 cells stably overexpressing hGLP1R; type: cell-based; design: host or cells: CHO-K1; conditions: for Selectivity: SCTR EC50/GLP1R EC50 ratio; for SCTR EC50/GLP1R EC50 ratio: selectivity for hGLP1R over hSCTR, cAMP accumulation in CHO-K1 cells; for EC50: cAMP accumulation, CHO-K1 cells overexpressing hGLP1R
Sequence of GLP1R (P43220 24-463): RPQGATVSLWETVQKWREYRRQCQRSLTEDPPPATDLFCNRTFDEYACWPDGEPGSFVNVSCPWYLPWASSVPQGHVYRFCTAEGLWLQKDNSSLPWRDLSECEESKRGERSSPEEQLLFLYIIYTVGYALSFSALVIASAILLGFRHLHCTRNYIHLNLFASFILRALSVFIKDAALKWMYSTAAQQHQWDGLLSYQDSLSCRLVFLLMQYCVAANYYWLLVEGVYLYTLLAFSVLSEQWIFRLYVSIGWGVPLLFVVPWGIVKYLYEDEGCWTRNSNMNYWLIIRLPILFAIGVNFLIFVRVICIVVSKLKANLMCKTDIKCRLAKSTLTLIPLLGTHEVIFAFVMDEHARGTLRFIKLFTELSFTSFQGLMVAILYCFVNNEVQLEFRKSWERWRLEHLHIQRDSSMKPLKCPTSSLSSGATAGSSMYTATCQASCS
Outline: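 Potency reflects cAMP accumulation measured by time-resolved fluorescence energy transfer after a 30 min room-temperature stimulation in IBMX-containing (0.5 mM) DPBS with casein. Purified peptides were tested in duplicate over eleven threefold dilutions, and EC50 was obtained from sigmoid concentration-response fitting.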

[1] = Fibril formation of crude library peptides (Thioflavin T); type: physicochemical; design: key: average ThT fluorescence emission at 480 nm (ex 450 nm), raw units; conditions: Physical stability of peptides
Outline: (§1)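 Values reflect mean ThT emission (ex 450, em 480 nm) over 72 h at 40° C, read every 10 min after 5 min shaking at 700 rpm, plus a single initial absorbance at 600 nm for turbidity. Peptides were at 267 μM, pH 4.0 acetate or pH 7.0 phosphate (50 mM), with 4 μM ThT.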

[2] = Turbidity of crude library peptides (absorbance at 600 nm); type: physicochemical; conditions: Physical stability of peptides
Outline: as §1

SCTR = SCTR (Homo sapiens, UniProt P47872); test: hSCTR potency, cAMP accumulation in CHO-K1 cells stably overexpressing hSCTR; type: cell-based; design: alternatively Euroscreen ES-712-AF; FAST-0161L; host or cells: CHO-K1; conditions: for EC50: cAMP accumulation, CHO-K1 cells overexpressing hSCTR
Sequence of SCTR (P47872 23-440): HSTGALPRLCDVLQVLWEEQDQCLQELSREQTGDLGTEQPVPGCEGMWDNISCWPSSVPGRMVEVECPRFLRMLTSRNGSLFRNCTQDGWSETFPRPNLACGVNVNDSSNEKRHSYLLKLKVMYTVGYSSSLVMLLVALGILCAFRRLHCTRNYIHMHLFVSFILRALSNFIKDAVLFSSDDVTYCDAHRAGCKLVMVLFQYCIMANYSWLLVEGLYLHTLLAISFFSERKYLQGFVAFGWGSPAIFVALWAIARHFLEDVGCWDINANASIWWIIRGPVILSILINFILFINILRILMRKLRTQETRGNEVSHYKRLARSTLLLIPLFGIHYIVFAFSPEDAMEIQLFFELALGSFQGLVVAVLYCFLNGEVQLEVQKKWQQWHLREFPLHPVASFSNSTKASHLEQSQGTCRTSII
Outline: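 Potency reflects cAMP accumulation after 30 min agonist exposure at room temperature in hSCTR-expressing CHO-K1 cells, with 0.5 mM IBMX present to block phosphodiesterase. EC50 was derived by nonlinear regression.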

[3] = read-out: hSCTR pEC50 (converted)
[4] = read-out: hGLP1R pEC50 (converted)

Fibril formation [1] | Turbidity (pH 7) [2] | SCTR EC50/GLP1R EC50 ratio (GLP1R) | EC50 (SCTR; [3]) [nM] | EC50 (GLP1R; read-out: pEC50 hGLPR1 (converted)) [nM] | EC50 (SCTR; read-out: pEC50 hSCTR (converted)) [nM] | EC50 (GLP1R; [4]) [nM] | SMILES | pEC50 (GLP1R) | Selectivity (GLP1R) | pEC50 (SCTR)
6765 | 0.08 |  |  | 0.2 | 501 |  | CC(C)C[C@H](NC(=O)[C@H](CCC(=O)O)NC(=O)[C@H](CCCCNC(=O)COCCOCCNC(=O)COCCOCCNC(=O)CC[C@H](NC(=O)CCCCCCCCCCCCCCCCCCC(=O)O)C(=O)O)NC(=O)[C@H](CC(C)C)NC(=O)[C@H](CCCNC(=N)N)NC(=O)[C@H](CO)NC(=O)[C@@H](NC(=O)[C@H](CC(=O)O)NC(=O)[C@H](CO)NC(=O)[C@@H](NC(=O)[C@H](Cc1ccccc1)NC(=O)[C@@H](NC(=O)CNC(=O)[C@H](CCC(=O)O)NC(=O)C(C)(C)NC(=O)[C@@H](N)Cc1c[nH]cn1)[C@@H](C)O)[C@@H](C)O)C(C)C)C(=O)N[C@@H](C)C(=O)N[C@@H](C)C(=O)NC(C)(C)C(=O)N[C@@H](CCC(N)=O)C(=O)N[C@@H](CCCNC(=N)N)C(=O)N[C@@H](Cc1ccccc1)C(=O)N[C@@H](CC(C)C)C(=O)N[C@@H](CCC(=O)O)C(=O)N[C@@H](Cc1c[nH]cn1)C(=O)N[C@@H](CC(C)C)C(=O)N[C@H](C(N)=O)C(C)C [compound 10] (H-H[Aib]EGTFTSDVSRLK([AEEA-AEEA-γGlu-C20 diacid])ELAA[Aib]QRFLEHLV-NH2) |  | 2365 | 
2942 | 0.08 | 1279 | 20 |  |  | 0.0158 | CC[C@H](C)[C@H](NC(=O)[C@H](CO)NC(=O)[C@@H](NC(=O)[C@H](CC(=O)O)NC(=O)[C@H](CO)NC(=O)[C@@H](NC(=O)[C@H](Cc1ccccc1)NC(=O)[C@@H](NC(=O)CNC(=O)[C@H](CCC(=O)O)NC(=O)C(C)(C)NC(=O)[C@@H](N)Cc1c[nH]cn1)[C@@H](C)O)[C@@H](C)O)C(C)C)C(=O)N[C@@H](CC(C)C)C(=O)N[C@@H](CCCCNC(=O)COCCOCCNC(=O)COCCOCCNC(=O)CC[C@H](NC(=O)CCCCCCCCCCCCCCCCCCC(=O)O)C(=O)O)C(=O)N[C@@H](CCC(=O)O)C(=O)N[C@@H](CCC(=O)O)C(=O)N[C@@H](C)C(=O)NC(C)(C)C(=O)N[C@@H](CC(C)C)C(=O)N[C@@H](CCC(N)=O)C(=O)N[C@@H](CCCNC(=N)N)C(=O)N[C@@H](Cc1ccccc1)C(=O)N[C@@H](CC(C)C)C(=O)N[C@@H](CCC(=O)O)C(=O)N[C@@H](Cc1c[nH]cn1)C(=O)N[C@@H](CC(C)C)C(=O)N[C@H](C(N)=O)C(C)C [compound 172] (H-H[Aib]EGTFTSDVSILK([AEEA-AEEA-γGlu-C20 diacid])EEA[Aib]LQRFLEHLV-NH2) |  |  | 

The remaining lines, values behind:

SMILES | Fibril formation [1] | Turbidity (pH 7) [2] | SCTR EC50/GLP1R EC50 ratio (GLP1R) | EC50 (SCTR; [3]) [nM] | EC50 (GLP1R; read-out: pEC50 hGLPR1 (converted)) [nM] | EC50 (SCTR; read-out: pEC50 hSCTR (converted)) [nM] | EC50 (GLP1R; [4]) [nM] | pEC50 (GLP1R) | Selectivity (GLP1R) | pEC50 (SCTR)
CC(C)C[C@H](NC(=O)[C@H](Cc1ccccc1)NC(=O)[C@H](CCCNC(=N)N)NC(=O)[C@H](CCC(N)=O)NC(=O)[C@@H](NC(=O)[C@H](C)NC(=O)[C@H](C)NC(=O)[C@@H](NC(=O)[C@H](CCC(=O)O)NC(=O)[C@H](CCCCNC(=O)COCCOCCNC(=O)COCCOCCNC(=O)CC[C@H](NC(=O)CCCCCCCCCCCCCCCCCCC(=O)O)C(=O)O)NC(=O)[C@H](CC(C)C)NC(=O)[C@H](Cc1ccc(O)cc1)NC(=O)[C@H](CO)NC(=O)[C@@H](NC(=O)[C@H](CC(=O)O)NC(=O)[C@H](CO)NC(=O)[C@@H](NC(=O)[C@H](Cc1ccccc1)NC(=O)[C@@H](NC(=O)CNC(=O)[C@H](CCC(=O)O)NC(=O)C(C)(C)NC(=O)[C@@H](N)Cc1c[nH]cn1)[C@@H](C)O)[C@@H](C)O)C(C)C)[C@@H](C)O)[C@@H](C)O)C(=O)N[C@@H](CCC(=O)O)C(=O)N[C@@H](Cc1c[nH]cn1)C(=O)N[C@@H](CC(C)C)C(=O)N[C@H](C(N)=O)C(C)C [compound 4] (H-H[Aib]EGTFTSDVSYLK([AEEA-AEEA-γGlu-C20 diacid])ETAATQRFLEHLV-NH2) | 32222 | 0.08 |  |  |  |  |  | 11.10 | 13928 | 7.00
CC(C)C[C@H](NC(=O)[C@H](Cc1ccccc1)NC(=O)[C@H](CCCNC(=N)N)NC(=O)[C@H](CCC(N)=O)NC(=O)[C@@H](NC(=O)C(C)(C)NC(=O)[C@H](C)NC(=O)[C@H](CCC(=O)O)NC(=O)[C@H](CCC(=O)O)NC(=O)[C@H](CCCCNC(=O)COCCOCCNC(=O)COCCOCCNC(=O)CC[C@H](NC(=O)CCCCCCCCCCCCCCCCCCC(=O)O)C(=O)O)NC(=O)[C@H](CC(C)C)NC(=O)[C@H](Cc1ccc(O)cc1)NC(=O)[C@H](CO)NC(=O)[C@@H](NC(=O)[C@H](CC(=O)O)NC(=O)[C@H](CO)NC(=O)[C@@H](NC(=O)[C@H](Cc1ccccc1)NC(=O)[C@@H](NC(=O)CNC(=O)[C@H](CCC(=O)O)NC(=O)C(C)(C)NC(=O)[C@@H](N)Cc1c[nH]cn1)[C@@H](C)O)[C@@H](C)O)C(C)C)[C@@H](C)O)C(=O)N[C@@H](CCC(=O)O)C(=O)N[C@@H](Cc1c[nH]cn1)C(=O)N[C@@H](CC(C)C)C(=O)N[C@H](C(N)=O)C(C)C [compound 162] (H-H[Aib]EGTFTSDVSYLK([AEEA-AEEA-γGlu-C20 diacid])EEA[Aib]TQRFLEHLV-NH2) | 4281 | 0.08 | 178176 | 126 |  |  |  |  |  | 
CC(C)C[C@H](NC(=O)[C@H](Cc1ccccc1)NC(=O)[C@H](CCCNC(=N)N)NC(=O)[C@H](CCC(N)=O)NC(=O)[C@H](C)NC(=O)[C@H](C)NC(=O)[C@H](C)NC(=O)[C@H](Cc1ccccc1)NC(=O)[C@H](CCC(=O)O)NC(=O)[C@H](CCCCNC(=O)COCCOCCNC(=O)COCCOCCNC(=O)CC[C@H](NC(=O)CCCCCCCCCCCCCCCCCCC(=O)O)C(=O)O)NC(=O)[C@H](CC(C)C)NC(=O)[C@H](Cc1ccccc1)NC(=O)[C@H](CO)NC(=O)[C@@H](NC(=O)[C@H](CC(=O)O)NC(=O)[C@H](CO)NC(=O)[C@@H](NC(=O)[C@H](Cc1ccccc1)NC(=O)[C@@H](NC(=O)CNC(=O)[C@H](CCC(=O)O)NC(=O)C(C)(C)NC(=O)[C@@H](N)Cc1c[nH]cn1)[C@@H](C)O)[C@@H](C)O)C(C)C)C(=O)N[C@@H](CCC(=O)O)C(=O)N[C@@H](Cc1c[nH]cn1)C(=O)N[C@@H](CC(C)C)C(=O)N[C@H](C(N)=O)C(C)C [compound 84] (H-H[Aib]EGTFTSDVSFLK([AEEA-AEEA-γGlu-C20 diacid])EFAAAQRFLEHLV-NH2) | 47022 | 0.08 | 51215 | 3980 |  |  | 0.0794 |  |  | 
CC(C)C[C@H](NC(=O)[C@H](Cc1ccccc1)NC(=O)[C@H](CCCNC(=N)N)NC(=O)[C@H](CCC(N)=O)NC(=O)[C@H](C)NC(=O)[C@H](C)NC(=O)[C@H](C)NC(=O)[C@@H](NC(=O)[C@H](CCC(=O)O)NC(=O)[C@H](CCCCNC(=O)COCCOCCNC(=O)COCCOCCNC(=O)CC[C@H](NC(=O)CCCCCCCCCCCCCCCCCCC(=O)O)C(=O)O)NC(=O)[C@H](CC(C)C)NC(=O)[C@@H](NC(=O)[C@H](CO)NC(=O)[C@@H](NC(=O)[C@H](CC(=O)O)NC(=O)[C@H](CO)NC(=O)[C@@H](NC(=O)[C@H](Cc1ccccc1)NC(=O)[C@@H](NC(=O)CNC(=O)[C@H](CCC(=O)O)NC(=O)C(C)(C)NC(=O)[C@@H](N)Cc1c[nH]cn1)[C@@H](C)O)[C@@H](C)O)C(C)C)C(C)C)[C@@H](C)O)C(=O)N[C@@H](CCC(=O)O)C(=O)N[C@@H](Cc1c[nH]cn1)C(=O)N[C@@H](CC(C)C)C(=O)N[C@H](C(N)=O)C(C)C [compound 62] (H-H[Aib]EGTFTSDVSVLK([AEEA-AEEA-γGlu-C20 diacid])ETAAAQRFLEHLV-NH2) | 21979 | 0.08 |  |  |  |  |  | 10.00 | 18608 | 5.70
CC(C)C[C@H](NC(=O)[C@H](Cc1ccccc1)NC(=O)[C@H](CCCNC(=N)N)NC(=O)[C@H](CCC(N)=O)NC(=O)[C@H](CC(C)C)NC(=O)C(C)(C)NC(=O)[C@H](C)NC(=O)[C@H](CCC(=O)O)NC(=O)[C@H](CCC(=O)O)NC(=O)[C@H](CCCCNC(=O)COCCOCCNC(=O)COCCOCCNC(=O)CC[C@H](NC(=O)CCCCCCCCCCCCCCCCCCC(=O)O)C(=O)O)NC(=O)[C@H](CC(C)C)NC(=O)[C@H](Cc1ccc(O)cc1)NC(=O)[C@H](CO)NC(=O)[C@@H](NC(=O)[C@H](CC(=O)O)NC(=O)[C@H](CO)NC(=O)[C@@H](NC(=O)[C@H](Cc1ccccc1)NC(=O)[C@@H](NC(=O)CNC(=O)[C@H](CCC(=O)O)NC(=O)C(C)(C)NC(=O)[C@@H](N)Cc1c[nH]cn1)[C@@H](C)O)[C@@H](C)O)C(C)C)C(=O)N[C@@H](CCC(=O)O)C(=O)N[C@@H](Cc1ccc(O)cc1)C(=O)N[C@@H](CC(C)C)C(=O)N[C@H](C(N)=O)C(C)C [compound 144] (H-H[Aib]EGTFTSDVSYLK([AEEA-AEEA-γGlu-C20 diacid])EEA[Aib]LQRFLEYLV-NH2) | 5805 | 0.08 | 16042 | 251 |  |  | 0.0158 |  |  | 
